Data set [1] relates to cultured airway epithelia. Briefly: Confocal microscopy assay of drug uptake into cultured airway epithelia. It counts as cell-based. The following applies: compound on apical surface of airway cultures, x-z confocal microscopy; relative to amiloride. The method, then: FIG. 2 is an example of a confocal microscopy assay of drug uptake into cultured airway epithelia. In this assay, a compound (10^−4 M) is placed on the airway surface and fluorescence from the cells collected by x-z scanning confocal microscopy. The images shown on the left depict fluorescence in the cells 20 minutes after exposure to amiloride, benzamil and phenamil. Quantitation of the drug uptake is graphically illustrated on the right in terms of units of fluorescence.
The second assay utilizes confocal microscopy of amiloride congener uptake: Virtually all amiloride-like molecules fluoresce in UV range. This property of these molecules was used to directly measure cellular uptake, using a x-z confocal microscope (Leica). […] Serial x-z images were obtained with time and the magnitude of fluorescence accumulating in the cell compartment quantitated and plotted. […] Two compounds from the synthesis series described above (CF-509 and CF-519) appear to fulfil this criterion. Compounds that were equipotent or greater with amiloride were tested for wash-out as described above. However, because wash-out may reflect both potency and cell uptake, the rate of accumulation of fluorescence (indexed to the specific fluorescence/emission spectrum of each compound) in the cell compartment as a function of time was also routinely measured. […]

Data set [2] concerns airway epithelial Na^+ currents. Briefly: Lumenal drug inhibition of airway epithelial Na+ currents, monolayers in Ussing chambers, with wash-out. It counts as cell-based, human or dog. The following applies: for Effect of washout (3) 100% = Baseline: after maximal concentration (10^-4 M), lumenal bath exchanged three times with fresh KBR; for IC50 / Max Inhibition (%) from baseline: mucosal bath, voltage clamp; for IC50: half-log dose addition. The method, then:
In the second potency assay, airway epithelial monolayers mounted were in Ussing chambers: The principal assay consisted of tests of lumenal drug inhibition of airway epithelial Na^+ currents. Cells obtained from freshly excised human or dog airways were seeded onto SNAP-well Inserts (CoStar), cultured under air-liquid (ALI) conditions in hormonally defined media. The cells were assayed for Na^+ transport activity while bathed in Krebs bicarbonate Ringer (KBR) in the Ussing chambers under voltage clamp conditions. All test drug additions were to the mucosal bath with half-log dose addition protocols (10^−11 M-[…]). All drugs were made in standard stocks of 10^−2 M drug in DMSO. Eight preparations were typically run in parallel; two preparations/run were routinely used to assay amiloride and benzamil. After the maximal concentration (10^−4 M) was administered, the lumenal bath was exchanged three times with fresh KBR solution, which was defined as the “wash-out” effect. All data from the voltage clamps were collected via a computer interface and analyzed off-line.
Dose-effect relationships for all compounds were considered and analyzed by the Prism 3.0 program. The IC50, maximal effective concentrations, and percent washout were calculated and compared to those of amiloride and benzamil as reference compounds.
The first assay is referred to an assay of reversibility. Empirically, the percent of wash-out correlates with cellular uptake. The relationship is complex because reversibility is also a function of potency. However, reversibility is a quick and simple screen. The compounds that “reverse” best in this assay referenced to benzamil were also the least absorbed in the confocal assay, as described below.

Structures can show the parent of a compound that is named as a salt.

For the compound `NC(=NCc1ccccc1)NC(=O)c1nc(Cl)c(N)nc1N` [benzamil, 3,5-diamino-6-chloro-N-(benzylaminoaminomethylene) pyrazinecarboxamide, reference compound], in data set [1], the “Cellular uptake (fluorescence accumulating in the cell compartment)” value is reported as “rapid”.

Turning to `Br.Br.N=C(NCc1cccc(CNC(=N)NC(=O)c2nc(Cl)c(N)nc2N)c1)NC(=O)c1nc(Cl)c(N)nc1N` [CF-512, 1,3-Bis[(3,5-diamino-6-chloropyrazinovl)guanidino]xylylene Dihydrobromide], in data set [2], the “Effect of washout (3) 100% = Baseline” value was found to be 60%, the IC50 is 197 nM and the “Max Inhibition (%) from baseline” value was 92%.

Take `N/C(=N\C(=O)c1nc(Cl)c(N)nc1N)NCc1ccc(CN/C(N)=N/C(=O)c2nc(Cl)c(N)nc2N)cc1` [CF-516, 1,4-Bis[(3,5-diamino-6-chloropyrazinoyl)guanidinol]xylylene Dihydrobromide]: in data set [2], the “Effect of washout (3) 100% = Baseline” value came to 65%, half-maximal inhibition (IC50) required 330 nM and the “Max Inhibition (%) from baseline” value is reported as 90%.

A word on the IC50: it is the concentration needed to halve the response being measured.
